Test results published in patent US20040106877A1, “Method and device for determining state of skin surface” (priority 2000, published 2004).
Read-outs that look alike come from different tables or passages of the source. No end group written: not given here.

How the values were obtained:
Type in all cases: cell-based
[1] = system: skin sections of a hairless mouse; test: Skin surface potential difference relative to culture solution, substance P (SP) stimulation; conditions: FIG. 3
[2] = system: skin sections of a hairless mouse
[3] = system: skin sections of a hairless mouse; test: Skin surface potential difference relative to culture solution, capsaicin coated on the skin surface; conditions: FIG. 6
Excerpt: In a second method, upon measuring the skin surface condition of the first method, stimulation is imparted further to the skin model comprising a skin section and a culture solution to measure aforementioned potential difference. This potential difference changes as stimulation is imparted. This change means that a stream of ions has occurred in the epidermis. The direction of a stream of ions differs depending on stimulation. When there is a change compared to the value of untreated skin, it is interpreted that stimulation producing mobility of ions is imparted to the epidermis. The degree of skin stimulation is measured from the changed value. Upon imparting stimulation, the place of stimulation may be on skin surface or culture solution. In the case of skin surface, examples of methods for imparting stimulation include coating skin with a stimulating substance and physical stimulation. Also, in the case of culture solution, the method used is addition of stimulating substances. Examples of these stimulating substances include neuropeptide, histamine, surfactant, organic acid, and capsaicin. […] In addition, examples of said physical stimulation include barrier destruction by a cellophane adhesive tape and the like.

substance P (RPKPQQFFGLM; ends and bridges not checked; UniProt P20366 58-68, looked up) [SP, neuropeptide used as a stimulating substance]
time after addition when the potential difference returns to a value close to control ([1]; SP added to culture solution): 2 h
time of peak of the potential difference change after addition ([1]; SP added to culture solution): 1 h
change in potential difference of the skin surface relative to culture solution after stimulating substance ([1]; SP added to culture solution, compared with non-treated skin surface (control), average of five measurements): a rapid change in a potential difference is produced

Nc1ccncc1 [AP, aminopyridine]
inhibition of the tape-stripping-induced change in potential difference ([2]; drug added to culture solution after tape stripping, average of five measurements, FIG. 4, FIG. 5): reduces the change in potential difference

Oc1cc2c(cc1O)CN(C(=S)NCCc1ccc(Cl)cc1)CCC2 [capsazepine]
inhibition of the capsaicin-induced change in potential difference ([3]; drug coated on skin surface after capsaicin): the range of change in potential difference is reduced

NC1=N[C@H](O)[C@H]2[C@H]3O[C@]4(O)O[C@@H]([C@@H](O)[C@@]2(N1)[C@@H]4O)[C@]3(O)CO [TTX, tetrodotoxin]
inhibition of the tape-stripping-induced change in potential difference [2]: does not inhibit the change in a potential difference

[D-Arg1, D-Trp7, 9, Leu11]-SubstanceP [SP antagonist]
inhibition of the SP-induced change in potential difference ([1]; drug added to culture solution before adding SP, observed for 2 hours): no rapid and significant change in potential difference is produced

COc1cc(CNC(=O)CCCC/C=C/C(C)C)ccc1O [capsaicin]
time of maximum change in potential difference after coating ([3]; capsaicin coated on skin surface): 0.5 h
change in potential difference of the skin surface relative to culture solution after stimulating substance ([3]; capsaicin coated on skin surface, compared with non-treated skin surface (control), average of five measurements): a rapid change in potential difference
